Experimental data reported in patent publication US20260159512A1, “BCAT2 INHIBITORS” (AGIOS PHARMACEUTICALS, INC., priority 2021, published 2026).

Legend:
Conditions in all cases: average where tested multiple times
[1] = target: T1, BCAT2 (Homo sapiens, UniProt O15382); assay: BCAT2 in vitro cell inhibition using engineered A549 cells (KMV cell assay, 13C6-KMV by LC-MS/MS); format: cell-based; set-up: The result was an engineered A549 cell line that expressed endogenous BCAT2; endogenous in cells; host or cells: A549 cells with MUT and BCAT1 knocked out by CRISPR/CAS9; key to BCAT2 Cell Inhibition: A: less than or equal to 0.100 μM; B: greater than 0.100 and less than or equal to 0.500 μM; C: greater than 0.500 and less than or equal to 1.000 μM; d: greater than 1.000 μM; E: no fit
T1 sequence (O15382 28-392): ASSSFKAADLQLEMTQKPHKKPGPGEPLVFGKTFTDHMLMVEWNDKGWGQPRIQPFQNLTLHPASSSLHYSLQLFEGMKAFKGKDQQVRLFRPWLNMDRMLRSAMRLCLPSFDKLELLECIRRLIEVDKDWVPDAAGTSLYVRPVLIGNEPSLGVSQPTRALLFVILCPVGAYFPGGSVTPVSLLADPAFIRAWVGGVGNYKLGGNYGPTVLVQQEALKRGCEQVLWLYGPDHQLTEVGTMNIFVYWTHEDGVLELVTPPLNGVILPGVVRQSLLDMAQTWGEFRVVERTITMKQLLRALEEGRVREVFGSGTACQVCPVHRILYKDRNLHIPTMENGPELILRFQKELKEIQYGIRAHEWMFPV

[2] = target: T2, hBCAT1 (Homo sapiens, UniProt P54687); assay: BCAT1 in vitro enzyme inhibition assay (resazurin/diaphorase-coupled fluorescence); format: biochemical
T2 sequence (P54687 1-386): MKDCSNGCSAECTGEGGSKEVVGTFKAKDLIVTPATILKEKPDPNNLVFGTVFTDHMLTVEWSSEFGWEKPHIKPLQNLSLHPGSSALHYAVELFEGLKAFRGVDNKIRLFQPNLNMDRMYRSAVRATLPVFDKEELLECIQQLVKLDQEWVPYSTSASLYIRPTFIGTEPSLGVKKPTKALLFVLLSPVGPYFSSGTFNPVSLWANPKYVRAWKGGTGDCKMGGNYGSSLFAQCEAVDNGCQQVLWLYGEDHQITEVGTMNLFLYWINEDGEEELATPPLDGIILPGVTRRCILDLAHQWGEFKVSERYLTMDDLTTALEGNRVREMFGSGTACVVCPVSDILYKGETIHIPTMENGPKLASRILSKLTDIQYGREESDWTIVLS
Outline: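 Ten-point, 3-fold compound series (top final 100 μM, delivered 1:50 from 50× DMSO stocks) tested against hBCAT1. Inhibition detected via diaphorase-coupled resazurin fluorescence, duplicate wells, with values from repeated runs averaged.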

[3] = target: T1, BCAT2; assay: BCAT2 in vitro enzyme inhibition assay (resazurin/diaphorase-coupled fluorescence); format: biochemical
Outline: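 Coupled fluorescence readout: glutamate formed from L-leucine/α-ketoglutarate transamination drives GDH/NAD/diaphorase reduction of resazurin (Ex 540/Em 590). Human BCAT2 was first exposed 1 h at room temperature to compound, top final 100 μM in 3-fold, 10-point series; substrate reaction ran 1 h before SDS quench, in technical duplicate with DMSO max and enzyme-free min controls.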

| Structure (SMILES) | IC50 [1] [nM] | IC50 [2] [nM] | IC50 [3] [nM] | BCAT2 Cell Inhibition [1] |
| --- | --- | --- | --- | --- |
| C#Cc1cnc(C(=O)N[C@H]2CCC[C@@H](n3c(-c4ccccn4)nc4cnc(-n5nccn5)cc43)C2)s1 [Example 20, 5-ethynyl-N-((1S,3R)-3-(2-(pyridin-2-yl)-6-(2H-1,2,3-triazol-2-yl)-1H-imidazo[4,5-c]pyridin-1-yl)cyclohexyl)thiazole-2-carboxamide] | ≤ 100 | < 500 | ≤ 100 |  |
| O=C(N[C@H]1CCC[C@@H](n2c(-c3ccccn3)nc3cnc(-n4nccn4)cc32)C1)c1ncc(C(F)F)s1 [Example 21, 5-(difluoromethyl)-N-((1S,3R)-3-(2-(pyridin-2-yl)-6-(2H-1,2,3-triazol-2-yl)-1H-imidazo[4,5-c]pyridin-1-yl)cyclohexyl)thiazole-2-carboxamide] | 100 to 500 | 500 to 1000 | ≤ 100 |  |
| O=C(N[C@H]1CCC[C@@H](n2c(-c3ncccc3F)nc3cnc(-n4nccn4)cc32)C1)c1ncc(Br)s1 [Example 22, 5-bromo-N-((1S,3R)-3-(2-(3-fluoropyridin-2-yl)-6-(2H-1,2,3-triazol-2-yl)-1H-imidazo[4,5-c]pyridin-1-yl)cyclohexyl)thiazole-2-carboxamide] | ≤ 100 | < 500 | ≤ 100 |  |
| C#Cc1cnc(C(=O)N[C@H]2CCC[C@@H](n3c(-c4ncccc4F)nc4cnc(-n5nccn5)cc43)C2)s1 [Example 23, 5-ethynyl-N-((1S,3R)-3-(2-(3-fluoropyridin-2-yl)-6-(2H-1,2,3-triazol-2-yl)-1H-imidazo[4,5-c]pyridin-1-yl)cyclohexyl)thiazole-2-carboxamide] | ≤ 100 | < 500 | ≤ 100 |  |
| O=C(N[C@H]1CCC[C@@H](n2c(-c3ncccc3F)nc3cnc(-n4nccn4)cc32)C1)c1ncc(C(F)F)s1 [Example 24, 5-(difluoromethyl)-N-((1S,3R)-3-(2-(3-fluoropyridin-2-yl)-6-(2H-1,2,3-triazol-2-yl)-1H-imidazo[4,5-c]pyridin-1-yl)cyclohexyl)thiazole-2-carboxamide] | ≤ 100 | < 500 | ≤ 100 |  |
| O=C(N[C@H]1CCC[C@@H](n2c(-c3ccccc3F)nc3cnc(-n4nccn4)cc32)C1)c1ncc(C(F)F)s1 [Example 25, 5-(difluoromethyl)-N-((1S,3R)-3-(2-(2-fluorophenyl)-6-(2H-1,2,3-triazol-2-yl)-1H-imidazo[4,5-c]pyridin-1-yl)cyclohexyl)thiazole-2-carboxamide] | ≤ 100 | < 500 | ≤ 100 |  |
| O=C(N[C@H]1CCC[C@@H](n2c(-c3ccccn3)nc3cnc(-n4cncn4)cc32)C1)c1ncc(C(F)F)s1 [Example 26, 5-(difluoromethyl)-N-((1S,3R)-3-(2-(pyridin-2-yl)-6-(1H-1,2,4-triazol-1-yl)-1H-imidazo[4,5-c]pyridin-1-yl)cyclohexyl)thiazole-2-carboxamide] |  | > 5000 | 100 to 500 | E |
| O=C(N[C@H]1CCC[C@@H](n2c(-c3ncccc3F)nc3cnc(-n4cncn4)cc32)C1)c1ncc(C(F)F)s1 [Example 28, 5-(difluoromethyl)-N-((1S,3R)-3-(2-(3-fluoropyridin-2-yl)-6-(1H-1,2,4-triazol-1-yl)-1H-imidazo[4,5-c]pyridin-1-yl)cyclohexyl)thiazole-2-carboxamide] | 500 to 1000 | 1000 to 5000 | ≤ 100 |  |
| C#Cc1cnc(C(=O)N[C@H]2CCC[C@@H](n3c(-c4ncccc4F)nc4cnc(-n5cncn5)cc43)C2)s1 [Example 29, 5-ethynyl-N-((1S,3R)-3-(2-(3-fluoropyridin-2-yl)-6-(1H-1,2,4-triazol-1-yl)-1H-imidazo[4,5-c]pyridin-1-yl)cyclohexyl)thiazole-2-carboxamide] | 100 to 500 | 500 to 1000 | ≤ 100 |  |
| O=C(N[C@H]1CCC[C@@H](n2c(-c3ccccn3)nc3cnc(-n4cccn4)cc32)C1)c1ccc(Br)s1 [Example 30, N-((1S,3R)-3-(6-(1H-pyrazol-1-yl)-2-(pyridin-2-yl)-1H-imidazo[4,5-c]pyridin-1-yl)cyclohexyl)-5-bromothiophene-2-carboxamide] | 500 to 1000 | 1000 to 5000 | ≤ 100 |  |
| Cc1coc(-c2cc3c(cn2)nc(-c2ccccn2)n3[C@@H]2CCC[C@H](NC(=O)c3ccc(Br)s3)C2)n1 [Example 31, 5-bromo-N-((1S,3R)-3-(6-(4-methyloxazol-2-yl)-2-(pyridin-2-yl)-1H-imidazo[4,5-c]pyridin-1-yl)cyclohexyl)thiophene-2-carboxamide] | ≤ 100 | < 500 | ≤ 100 |  |
| O=C(N[C@H]1CCC[C@@H](n2c(-c3ccccn3)nc3cnc(-n4ccnn4)cc32)C1)c1ncc(Br)s1 [Example 32, 5-bromo-N-((1S,3R)-3-(2-(pyridin-2-yl)-6-(1H-1,2,3-triazol-1-yl)-1H-imidazo[4,5-c]pyridin-1-yl)cyclohexyl)thiazole-2-carboxamide] | > 1000 | 1000 to 5000 | 100 to 500 |  |
| C#Cc1cnc(C(=O)N[C@H]2CCC[C@@H](n3c(-c4ccccn4)nc4cnc(-n5ccnn5)cc43)C2)s1 [Example 33, 5-ethynyl-N-((1S,3R)-3-(2-(pyridin-2-yl)-6-(1H-1,2,3-triazol-1-yl)-1H-imidazo[4,5-c]pyridin-1-yl)cyclohexyl)thiazole-2-carboxamide] | 500 to 1000 | 1000 to 5000 | ≤ 100 |  |
| O=C(N[C@H]1CCC[C@@H](n2c(-c3ccccn3)nc3cnc(-n4ccnn4)cc32)C1)c1ncc(C(F)F)s1 [Example 34, 5-(difluoromethyl)-N-((1S,3R)-3-(2-(pyridin-2-yl)-6-(1H-1,2,3-triazol-1-yl)-1H-imidazo[4,5-c]pyridin-1-yl)cyclohexyl)thiazole-2-carboxamide] |  | > 5000 | 100 to 500 | E |
| O=C(N[C@H]1CCC[C@@H](n2c(-c3ncccc3F)nc3cnc(-n4ccnn4)cc32)C1)c1ncc(Br)s1 [Example 35, 5-bromo-N-((1S,3R)-3-(2-(3-fluoropyridin-2-yl)-6-(1H-1,2,3-triazol-1-yl)-1H-imidazo[4,5-c]pyridin-1-yl)cyclohexyl)thiazole-2-carboxamide] | 500 to 1000 | 1000 to 5000 | ≤ 100 |  |
| C#Cc1cnc(C(=O)N[C@H]2CCC[C@@H](n3c(-c4ncccc4F)nc4cnc(-n5ccnn5)cc43)C2)s1 [Example 36, 5-ethynyl-N-((1S,3R)-3-(2-(3-fluoropyridin-2-yl)-6-(1H-1,2,3-triazol-1-yl)-1H-imidazo[4,5-c]pyridin-1-yl)cyclohexyl)thiazole-2-carboxamide] | 100 to 500 | 500 to 1000 | ≤ 100 |  |
| O=C(N[C@H]1CCC[C@@H](n2c(-c3ncccc3F)nc3cnc(-n4ccnn4)cc32)C1)c1ncc(C(F)F)s1 [Example 37, 5-(difluoromethyl)-N-((1S,3R)-3-(2-(3-fluoropyridin-2-yl)-6-(1H-1,2,3-triazol-1-yl)-1H-imidazo[4,5-c]pyridin-1-yl)cyclohexyl)thiazole-2-carboxamide] | > 1000 | 1000 to 5000 | 100 to 500 |  |
| O=C(N[C@H]1CCC[C@@H](n2c(-c3ccccc3F)nc3cnc(-n4ccnn4)cc32)C1)c1ncc(C(F)F)s1 [Example 38, 5-(difluoromethyl)-N-((1S,3R)-3-(2-(2-fluorophenyl)-6-(1H-1,2,3-triazol-1-yl)-1H-imidazo[4,5-c]pyridin-1-yl)cyclohexyl)thiazole-2-carboxamide] | 100 to 500 | 1000 to 5000 | ≤ 100 |  |
